Data on 12 compounds can be found in ChEMBL document CHEMBL1201862, “PubChem BioAssay data set” (2004).

Among the test systems are SK-MEL-5; CCRF-CEM; MDA-MB-231; OVCAR-5; A498; HCT-116; SNB-19; DU-145; KM12; M14; MCF7; BT-549; COLO 205; NCI-H460; OVCAR-3; NCI-H23; SNB-75; NCI/ADR-RES.
What all share (assay): growth of human tumour cells (NCI), 48 h

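Method: 48-hour compound exposure of cells in 96-well plates, five concentrations, linear interpolation of endpoints. GI50 = concentration required for 50% inhibition of growth.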 Calls of active or inactive are those of the source. Cut-off read from the data, not from the text of the source: active = GI50 up to about 1.1 µM and inactive = higher.

As for `Cc1nc2ccccc2c(=O)n1NC(=O)c1ccc([N+](=O)[O-])cc1`, the GI50 in the test with SK-MEL-5 is > 100 µM (inactive); in the test with CCRF-CEM, > 100 µM (inactive); in the test with MDA-MB-231 it was > 100 µM (inactive); in the test on OVCAR-5, > 100 µM (inactive); in the test on A498, 56.4 µM (inactive); in the test with HCT-116, > 100 µM (inactive). The GI50 in the test on SNB-19, with DU-145, in the test with KM12, with M14, in the test on MCF7 and in the test with BT-549 was > 100 µM (inactive) in each case. The GI50 in the test with COLO 205, with NCI-H460, in the test with OVCAR-3, with NCI-H23 and in the test on SNB-75 was > 100 µM (inactive) in each case.
`COc1ccc(NC(=S)c2ccoc2C)cc1CC(=O)OC(C)C`: the GI50 is 17.5 µM (inactive) with NCI/ADR-RES; 34.1 µM (inactive) with SK-MEL-5; 43.9 µM (inactive) in the test on CCRF-CEM; 81.5 µM (inactive) in the test with MDA-MB-231; > 100 µM (inactive) in the test with OVCAR-5; 55.8 µM (inactive) in the test with HCT-116. The GI50 with SNB-19 is 61.5 µM (inactive); in the test on DU-145, 48.3 µM (inactive); in the test with KM12 it was 29.7 µM (inactive); in the test on M14, 24.9 µM (inactive); in the test with MCF7, 22 µM (inactive); with BT-549, > 10 µM (inactive). For the same compound, the GI50 with COLO 205 was 17.7 µM (inactive); with NCI-H460 it was 31.8 µM (inactive); in the test with OVCAR-3, 26.5 µM (inactive); in the test with NCI-H23 it was 46.2 µM (inactive); in the test with SNB-75 it was 15.7 µM (inactive).
Take `O=P1(c2ccccc2)c2ccccc2CCc2ccccc21`: the GI50 with SK-MEL-5 was 44.9 µM (inactive); in the test on CCRF-CEM it was 47.9 µM (inactive); in the test with MDA-MB-231, 80.7 µM (inactive); in the test on HCT-116 it was 53 µM (inactive); with SNB-19, > 100 µM (inactive); with DU-145, 72.8 µM (inactive). In addition, the GI50 in the test with KM12 was 56.1 µM (inactive); in the test on M14, 70 µM (inactive); in the test with MCF7, > 100 µM (inactive); in the test on BT-549 it was 99.5 µM (inactive); in the test on COLO 205, > 100 µM (inactive); in the test on OVCAR-3, 40.8 µM (inactive). Also, the GI50 in the test with NCI-H23 was > 100 µM (inactive); in the test with SNB-75, 43.8 µM (inactive).
For the compound `COC(=O)C1c2cc3c(cc2C(OC2OC(C)C(OC)C(C)(OC)C2OC)CC1(C)O)C(=O)c1c(O)cc2c(c1C3=O)OC1OC2(C)C(O)C([N+](C)(C)[O-])C1O` (stereo not given), the GI50 is 0.0776 µM (active) in the test with SK-MEL-5; 0.0504 µM (active) in the test on CCRF-CEM; 0.469 µM (active) in the test with MDA-MB-231; 1.48 µM (inactive) in the test with OVCAR-5; 0.184 µM (active) in the test on A498; 0.0197 µM (active) in the test on HCT-116. Besides, the GI50 with SNB-19 is 0.126 µM (active); with DU-145, 0.275 µM (active); with KM12, 0.154 µM (active); in the test on M14 it was 0.482 µM (active); in the test with MCF7, 0.149 µM (active); in the test with BT-549, 0.179 µM (active). The GI50 in the test on COLO 205 was 0.0634 µM (active); with NCI-H460, 0.0644 µM (active); in the test on OVCAR-3, 0.658 µM (active); in the test on NCI-H23, 0.105 µM (active); in the test on SNB-75 it was 0.179 µM (active).
Turning to `O=C(O)CSc1cc(-c2ccccc2)nc2ccccc12`, the GI50 was 34.2 µM (inactive) in the test with NCI/ADR-RES; 30.4 µM (inactive) in the test on SK-MEL-5; 98.9 µM (inactive) in the test on MDA-MB-231; > 100 µM (inactive) in the test on OVCAR-5; 28.5 µM (inactive) with A498; 5.41 µM (inactive) in the test on HCT-116. Moreover, the GI50 is > 100 µM (inactive) in the test on SNB-19; 34 µM (inactive) in the test on DU-145; 30.5 µM (inactive) in the test on KM12; 50.2 µM (inactive) in the test on M14; 32 µM (inactive) in the test with BT-549; 38.7 µM (inactive) in the test with NCI-H460. Further, the values for the GI50 in the test on OVCAR-3 and in the test on NCI-H23 were 21.7 µM (inactive) and 44.7 µM (inactive), respectively.
For `CCOC(=O)C(NC(=O)c1cccc(Cl)c1)(Nc1cccc(C)c1)C(F)(F)F` (stereo not given), the GI50 with NCI/ADR-RES is 15.9 µM (inactive); with SK-MEL-5, 16.1 µM (inactive); with CCRF-CEM, 11.6 µM (inactive); in the test on MDA-MB-231, 19.4 µM (inactive); with HCT-116, 19.1 µM (inactive); in the test with SNB-19, 35.9 µM (inactive). Further, the GI50 with DU-145 is 29.3 µM (inactive); in the test on KM12, 13.6 µM (inactive); with MCF7, 19 µM (inactive); with BT-549, 13 µM (inactive); in the test on COLO 205, 20.1 µM (inactive); in the test with NCI-H460, 20.8 µM (inactive). The GI50 in the test on SNB-75 was 12.4 µM (inactive).
For the compound `c1ccc(-c2cc(-c3ccccc3)nc(-c3ccncc3)c2)cc1`, the GI50 is > 100 µM (inactive) in the test on NCI/ADR-RES; 57.1 µM (inactive) with SK-MEL-5; > 100 µM (inactive) with CCRF-CEM; 97.5 µM (inactive) in the test with MDA-MB-231; > 100 µM (inactive) with OVCAR-5; 48.8 µM (inactive) in the test with HCT-116. Also, the GI50 was 53.8 µM (inactive) in the test on SNB-19; > 100 µM (inactive) in the test with DU-145; 96.4 µM (inactive) with KM12; 42.4 µM (inactive) in the test with M14; > 100 µM (inactive) in the test with MCF7; > 100 µM (inactive) in the test with BT-549. The GI50 in the test on COLO 205 was > 100 µM (inactive); in the test with OVCAR-3, > 100 µM (inactive); in the test with NCI-H23, 91.4 µM (inactive).
On to `CCOC(=O)/C=C(/C(=O)OCC)n1cc(C)c(=O)n(Cc2cnnn2CCCCOC(C)=O)c1=O`, for which the GI50 is 26.7 µM (inactive) in the test with NCI/ADR-RES; 30 µM (inactive) with SK-MEL-5; 1.13 µM (inactive) with CCRF-CEM; 64.6 µM (inactive) with MDA-MB-231; 19.6 µM (inactive) in the test on OVCAR-5; 15.1 µM (inactive) in the test with HCT-116. Besides, the GI50 in the test with SNB-19 was > 100 µM (inactive); with DU-145, > 100 µM (inactive); in the test with KM12, 44.2 µM (inactive); in the test on MCF7 it was 13.6 µM (inactive); in the test on BT-549, 10.5 µM (inactive); in the test with COLO 205, 3.54 µM (inactive). The GI50 with NCI-H460 is 23.3 µM (inactive); with OVCAR-3, 16.8 µM (inactive); in the test on NCI-H23 it was 28.7 µM (inactive); in the test on SNB-75 it was > 100 µM (inactive).
As for `COC(=O)[C@H](Cc1c[nH]c2ccccc12)NP(=O)(O)OC[C@H]1O[C@@H](n2cc(C)c(=O)[nH]c2=O)C[C@@H]1N=[N+]=[N-]`, the GI50 in the test with NCI/ADR-RES, in the test on SK-MEL-5, in the test on CCRF-CEM, with MDA-MB-231, in the test on OVCAR-5 and with HCT-116 was > 100 µM (inactive) throughout. In addition, the GI50 in the test with SNB-19, in the test with DU-145, with KM12, in the test with M14, in the test on MCF7 and with BT-549 was > 100 µM (inactive) each time. Further, the GI50 in the test with COLO 205, with NCI-H460, in the test on OVCAR-3, with NCI-H23 and in the test on SNB-75 was > 100 µM (inactive) throughout.
As for `CC(=O)O[C@H]1C(=O)[C@@]2(C)C(C(OC(=O)c3ccccc3)[C@]3(O)CC(OC(=O)C(O)C(NC(=O)c4cccc(Cl)c4)c4ccccc4)C(C)=C1C3(C)C)[C@]1(OC(C)=O)CO[C@@H]1C[C@@H]2O` (stereo not given in full), the GI50 in the test on NCI/ADR-RES is 5.28 µM (inactive); in the test with SK-MEL-5 it was 0.42 µM (active); in the test on CCRF-CEM, 0.262 µM (active); with MDA-MB-231, 1.73 µM (inactive); with OVCAR-5, 1.1 µM (active); with HCT-116 it was 0.16 µM (active). For the same compound, the GI50 was 2.79 µM (inactive) in the test on SNB-19; 0.546 µM (active) with DU-145; 0.507 µM (active) with KM12; 0.851 µM (active) with M14; 0.344 µM (active) in the test on MCF7; 6.58 µM (inactive) in the test on BT-549. Besides, the GI50 in the test on COLO 205 was 0.385 µM (active); in the test on NCI-H460, 0.419 µM (active); with OVCAR-3, 0.449 µM (active); in the test on NCI-H23, 1.39 µM (inactive); in the test on SNB-75, 1.1 µM (active).
For `CN(C)c1ccc(/C=C/c2nc3ccccc3s2)cc1`, the GI50 in the test with NCI/ADR-RES, in the test with SK-MEL-5, with CCRF-CEM, in the test with MDA-MB-231, with OVCAR-5 and in the test with A498 was > 100 µM (inactive) each time. Also, the GI50 with HCT-116, in the test on SNB-19, with DU-145, with KM12, in the test with M14 and in the test on MCF7 was > 100 µM (inactive) in each case. Besides, the GI50 in the test on BT-549 is 80 µM (inactive); in the test on COLO 205, > 100 µM (inactive); in the test with NCI-H460 it was > 100 µM (inactive); with NCI-H23, > 100 µM (inactive).
In the case of `COc1cccc(O)c1-c1cc(=O)c2c(O)c(OC)c(OC)c(OC)c2o1` [SKULLCAPFLAVONE II], the GI50 was 21.8 µM (inactive) with NCI/ADR-RES; 19 µM (inactive) in the test with SK-MEL-5; 34.5 µM (inactive) in the test on CCRF-CEM; 41 µM (inactive) in the test with MDA-MB-231; 50.9 µM (inactive) in the test with OVCAR-5; 32.1 µM (inactive) with HCT-116. Also, the GI50 was 29.2 µM (inactive) in the test on SNB-19; 16.4 µM (inactive) in the test with DU-145; 12 µM (inactive) in the test on KM12; 23.5 µM (inactive) in the test on M14; 27.3 µM (inactive) in the test with MCF7; 27.2 µM (inactive) in the test on BT-549. Also, the GI50 in the test with COLO 205 was 16.5 µM (inactive); in the test with NCI-H460, 19.1 µM (inactive); in the test on OVCAR-3, 22.5 µM (inactive); with NCI-H23, 24.9 µM (inactive); in the test with SNB-75, 23 µM (inactive).
